Numbers after ± are expanded uncertainties.
What was measured:
[1] = 101.33 kPa, Liquid
[2] = activity coefficient (dimensionless); of the first substance listed, at infinite dilution; xn = mol fraction of the nth substance listed; conditions: Liquid, x1 = 0

Structure (SMILES) | activity coefficient ([2]; 303.15 K, Chromatography) | activity coefficient ([2]; 303.15 K, dilutor) | activity coefficient ([2]; 313.15 K, Chromatography) | activity coefficient ([2]; 313.15 K, dilutor) | activity coefficient ([2]; 323.15 K, Chromatography) | activity coefficient ([2]; 323.15 K, dilutor) | activity coefficient ([2]; 333.15 K, Chromatography) | activity coefficient ([2]; 333.15 K, dilutor) | other results
CCCCCC[n+]1ccn(C)c1.O=S(=O)([N-]S(=O)(=O)C(F)(F)F)C(F)(F)F | – | – | – | – | – | – | – | – | mass density ([1]; 293.15 K): 1374 ± 5 kg/m3; mass density ([1]; 298.15 K): 1370 ± 5 kg/m3; mass density ([1]; 303.15 K): 1365 ± 5 kg/m3; mass density ([1]; 308.15 K): 1361 ± 5 kg/m3; mass density ([1]; 313.15 K): 1356 ± 5 kg/m3; mass density ([1]; 318.15 K): 1352 ± 5 kg/m3; mass density ([1]; 323.15 K): 1347 ± 5 kg/m3; mass density ([1]; 328.15 K): 1343 ± 5 kg/m3; mass density ([1]; 333.15 K): 1339 ± 5 kg/m3; mass density ([1]; 338.15 K): 1334 ± 5 kg/m3; mass density ([1]; 343.15 K): 1330 ± 5 kg/m3; mass density ([1]; 348.15 K): 1325 ± 5 kg/m3; mass density ([1]; 353.15 K): 1320 ± 5 kg/m3; mass density ([1]; 358.15 K): 1315 ± 5 kg/m3
CCCCCC [hexane] + CCCCCC[n+]1ccn(C)c1.O=S(=O)([N-]S(=O)(=O)C(F)(F)F)C(F)(F)F | 8.23 ± 0.38 | 7.82 ± 0.39 | 7.82 ± 0.36 | 7.55 ± 0.38 | 7.48 ± 0.34 | 6.96 ± 0.35 | 7.27 ± 0.33 | 6.55 ± 0.33 | –
CCCCCC [hexane] + CCCC[N+]1(C)CCCC1.O=S(=O)([N-]S(=O)(=O)C(F)(F)F)C(F)(F)F | – | 13.8 ± 0.7 | – | 13.3 ± 0.7 | – | 12.1 ± 0.6 | – | 11 ± 0.6 | –
CO [methanol] + CCCCCCCCn1cc[n+](C)c1.O=S(=O)([N-]S(=O)(=O)C(F)(F)F)C(F)(F)F | 1.23 ± 0.04 | – | 1.14 ± 0.03 | – | 1.03 ± 0.03 | – | 0.96 ± 0.03 | – | –
CO [methanol] + CCCCCC[n+]1ccn(C)c1.O=S(=O)([N-]S(=O)(=O)C(F)(F)F)C(F)(F)F | 1.3 ± 0.04 | – | 1.19 ± 0.04 | 1.16 ± 0.06 | 1.1 ± 0.03 | 1.14 ± 0.06 | 1.02 ± 0.03 | 1.05 ± 0.05 | –
C=CCCCCCC [oct-1-ene] + CCCCCCCCn1cc[n+](C)c1.O=S(=O)([N-]S(=O)(=O)C(F)(F)F)C(F)(F)F | 5.57 ± 0.25 | – | 5.48 ± 0.25 | – | 5.32 ± 0.24 | – | 5.28 ± 0.24 | – | –
C=CCCCCCC [oct-1-ene] + CCCCCC[n+]1ccn(C)c1.O=S(=O)([N-]S(=O)(=O)C(F)(F)F)C(F)(F)F | 8.81 ± 0.4 | 8.28 ± 0.41 | 8.47 ± 0.39 | 8.08 ± 0.4 | 8.18 ± 0.38 | 7.92 ± 0.4 | 7.9 ± 0.36 | 7.77 ± 0.39 | –
C=CCCCCCC [oct-1-ene] + CCCC[N+]1(C)CCCC1.O=S(=O)([N-]S(=O)(=O)C(F)(F)F)C(F)(F)F | – | 15 ± 0.8 | – | 13.9 ± 0.7 | – | 13.3 ± 0.7 | – | 13.2 ± 0.7 | –
CCCCCCCC [octane] + CCCCCCCCn1cc[n+](C)c1.O=S(=O)([N-]S(=O)(=O)C(F)(F)F)C(F)(F)F | 8.92 ± 0.41 | – | 8.43 ± 0.39 | – | 8.14 ± 0.37 | – | 7.82 ± 0.36 | – | –
CCCCCCCC [octane] + CCCCCC[n+]1ccn(C)c1.O=S(=O)([N-]S(=O)(=O)C(F)(F)F)C(F)(F)F | 15.2 ± 0.7 | 14.4 ± 0.7 | 14.3 ± 0.7 | 14.1 ± 0.7 | 13.5 ± 0.6 | 13.1 ± 0.7 | 13 ± 0.6 | 12.8 ± 0.6 | –
